Measurements published in patent US8158142B2, “3-deazaadenosine prevents atherosclerosis and graft vasculopathy” (Kerckhoff-Klinik Gesellschaft mit beschrankter Haftung, priority 1998, dated 2012).

How the values were obtained:
female C57BL/J6 mice = test: Quantification of atherosclerotic lesions and neointimal proliferation in the ascending aorta of mice on atherogenic diet; type: in vivo, mouse; settings: for NI/M Ratio (neointimal to medial area ratio): mean ± SEM, 3 sections per animal
Description: (§1) Six to eight week old female C57BL/J6 mice (Charles Rivers Wiga, Sulzfeld, Germany) with an average body weight of 20 g were randomly divided into three groups:
Group 1: control animals (n=9) maintained on a normal mouse diet (Altromin, Standard Diet; Lage, Germany).
Group 2: nine animals receiving an atherogenic diet based on normal mouse chow but differing in total fat content (10% vs. 5%), protein content (15.4% vs. 22%) and cholesterol content (1% vs. 0%). The total energy was 3790 vs. 3000 kcal/kg.
Group 3: nine animals on an atherogenic diet as described above, and 3-deazaadenosine (c^3Ado) (Southern Research, Birmingham, Ala., USA) mixed into the food at a final concentration of 0.04 mg/g, according to a daily oral dose of 10 mg/kg c^3Ado per animal.
(§2) The average intake of food for each animal was 5.2 g per day. Food and water were replenished every 2 days, and the volumes consumed for each cage were recorded. The mice were kept in accordance with standard animal care requirements and were maintained on a 12 hour light-dark cycle with autoclaved water in a temperature-controlled environment. All animals remained healthy during the experimental period. After 9 weeks, mice were sacrificed by inhalation of trichlormethane. The heart and the ascending aorta were removed and rinsed with PBS DULBECCO'S (Life Technologies, Paisley, Scotland). The lower half of the heart was transected along a line between the tips of the atria to obtain a base for the emerging ascending aorta. This procedure allowed an exact vertical embedding of the aorta in Tissue-Tek (Miles, USA) for optimal plane cross sections. The sections were frozen in liquid nitrogen and stored at −80° C. until further study.
A modification of the method described by Paigen at el. (29) was used to evaluate aortic lesion formation. The frozen tissue blocks were placed on a cryotome, and 8 μm serial sections of the ascending aorta were collected on coated glass slides until we were able to locate the most cranial portion of the aortic sinus by examining unstained sections. Once this section (No.1) was identified, the cranial 35 sections, covering 280 μm of the ascending aorta, were placed on separate slides for further evaluation. Every fifth section of the first 280 μm of the ascending aorta was stained with oil red O (Riedel de Haen, Germany) and counterstained with hemalaun (Merck, Darmstadt, Germany) end elastic van Gieson (Chrome-Gesellsohaft, Schmid GmbH, Köngen, Germany). Lesion area as well as intimal and medial area were blindly determined using a video-computer aided microscopy planimetry system (Zeiss, Oberkochen, Germany; Video Camera 3 CCD,
Sony; 40× lens magnification; IBAS-2 with IBAS Version 2.0 Standard, Kontron, München, Germany).
The number of lesions was counted as described previously by reviewing every fifth section. […] The number of lesions in each cross section was also counted. Size of the lesions was determined as length of lesion along the luminal aortic perimeter which was related to the total luminal aortic perimeter in the section.
The extent of neointimal proliferation was quantified by measuring the area (μm^2) of the neointima and the media in each ascending aorta from 3 sections (No.10, 20 and 30). In each section four sectors (at 0°, 90°; 180° and 270°) of the vessel wall were analyzed in a defined window of 63 μm×63 μm to measure neointimal area enclosed by the endothelial layer and internal elastic lamina and external elastic lamina. Ratio of neointimal to medial are ratio (NI/M) was averaged for each animal.

VCAM-1 [1] = test: Immunohistochemical staining of VCAM-1 in ascending aorta (APAAP method); type: in vivo, mouse; settings: for Endothelial expression of VCAM-1 in the aorta (words): mice on atherogenic diet treated with c^3Ado, FIG. 4
Procedure: (§3) Serial cryostate sections (8 μm) from the following 3 parts of the ascending aorta were chosen: 8-32 μm, 120-144 μm and 240-264 μm distal to the aortic sinus. The frozen sections were fixed in ice-cold acetone and dried for 10 minutes. Sections were then incubated for 10 minutes in a 1:1000 dilution of mouse serum (Sigma, St. Louis, Mo., USA). After rinsing with RPMI 1640 (Life Technologies, Paisley, Scotland), the sections were incubated for 40 minutes at room temperature with a 1:100 dilution of a monoclonal rat anti-mouse antibody against ICAM-1 (CF54) or VCAM-1 (CD106, Dianova GmbH, Hamburg, Germany). Detection of monocytes/macropheges was performed using monoclonal rat anti-mouse antibody CD11 b (MAC-1) (Serotec Ltd., Oxford, England).
(§4) After additional washing steps with TRIS buffer (USB, Cleveland, Ohio, USA) and incubation with a secondary antibody (AffiniPureMouse anti-ret IgG, Dianova, Germany) (1:400) for 10 minutes, followed by incubation with a linking antibody (Dualsystem-Brückenantikörper; Dianova, Hamburg, Germany) (1:600) for 10 minutes, the sections were incubated with an alkaline phosphatase anti-alkaline phosphatese complex (APAPP) (1:50; Dianova, Hamburg, Germany) for 30 minutes. The development of the sections was performed in neufuchsin developer solution. Sections were finally counterstained with hemalaun (Merck, Darmstadt, Germany) for 10 seconds. Control sections were treated with linking secondary antibody and APAAP complex only.
(§5) The intensity of staining with ICAM-1 and VCAM-1 was scored from 1 to 4 as follows: score 1=no staining, score 2=weak staining, score 3=moderate staining and score 4=strong staining of the vascular cells. The number of CD11b-positive cells was counted in each section, and the localization of the cells was classified as adherent to the wall, or localized in the intima or in the media.

ICAM-1 [2] = test: Immunohistochemical staining of ICAM-1 in ascending aorta (APAAP method); type: in vivo, mouse; settings: for Endothelial expression of ICAM-1 in the aorta (words): mice on atherogenic diet treated with c^3Ado, FIG. 4
Procedure: as §3, §4, §5

CD11b-positive monocytes = test: Counting of CD11b-positive monocytes in aortic sections; type: in vivo, mouse
Procedure: as §3, §4, §5

[3] = Total plasma cholesterol levels (CHOD-PAP method); type: in vivo, mouse; settings: atherogenic diet + c^3Ado 10 mg/kg/day oral, mean ± SEM
Procedure: Blood was collected via the tail vein from all mice after overnight fasting prior to initiation of the experiment, after 35 days feeding the different diets, and at time of death. Total plasma cholesterol levels were determined using the CHOD-PAP method (Boehringer Mannheim, Germany) as described previously (32).

Body weight development = type: in vivo, mouse; settings: day 65, atherogenic diet + c^3Ado 10 mg/kg/day oral, mean ± SEM, n = 9
Procedure: as §1, §2

[4] = test system: Lewis rats which received heterotopically transplanted hearts from Fisher rats; test: Heterotopic heart allograft survival and rejection (Fisher to Lewis rats); type: in vivo, rat
Procedure: (§6) 3-Deazaadenosine was orally administered by mixing into the regular food at a final concentration of 0.04 mg/g, according to a daily oral dose of 10 mg/kg c3Ado per animal, in addition to or in absence of cyclosporine (0.2 mg/kg body weight) to Lewis rats which received heterotopically transplanted hearts from Fisher rats. For a third control group, only cyclosporine was administered daily to the other allograft recipients. All animals got a standard diet over the whole study period. Allografts were harvested on day 120, cardiac graft beat was assessed by daily palpation, and the complete cessation of the graft beat was interpreted as rejection.

[5] = test system: Lewis rats which received heterotopically transplanted hearts from Fisher rats; test: Graft vasculopathy / graft atherosclerosis (intimal thickening) in transplanted hearts; type: in vivo, rat; settings: after 120 days
Procedure: as §6, with “rejection. […]” for “rejection.”
Every complete cross-section of the traceable arteries was calculated. The sections were reviewed by two independent reviewers masked to the status of the slides, and histologic changes were assessed semiquantitatively. The changes of intimal thickening were scored as mild (score 1, <25% occlusion of the lumen) when the intima was readily discernible, or as moderate (score 2, 25-50% occlusion) to severe (score 3, >50% occlusion).

ICAM-1 [6] = test: Immunohistochemical analysis of ICAM-1 in transplanted hearts; type: in vivo, rat; settings: heart allograft, day 120
Procedure: as §6, with “rejection. […]” for “rejection.”
(§7) For immunohistochemical analysis of VCAM-1 and ICAM-1. two complete transverse sections of the transplanted heart approximately 3 mm in thickness were obtained and stored in optimum cutting temperature compound. Serial sections were cut and dipped in cold acetone for 10 minutes. The staining procedures were performed as described previously. The expression of the adhesion molecules was scored on the basis of endothelial cells and smooth muscle cells of epicardial arteries and intramyocardial aterioles. Analysis was done semiquantitatively by scoring the intensity of the staining and counting of the number of stained cells.

VCAM-1 [7] = test: Immunohistochemical analysis of VCAM-1 in transplanted hearts; type: in vivo, rat; settings: heart allograft, day 120
Procedure: as §6, with “rejection. […]” for “rejection.”
as §7

monocyte = settings: cited from earlier work
endothelial cells = settings: in vitro, via selective inhibition of ICAM-1 synthesis; cited from earlier work
[8] = target: adenosylhomocysteine hydrolase (Homo sapiens, UniProt P23526); settings: cited from earlier work
adenosylhomocysteine hydrolase, sequence (P23526 whole entry): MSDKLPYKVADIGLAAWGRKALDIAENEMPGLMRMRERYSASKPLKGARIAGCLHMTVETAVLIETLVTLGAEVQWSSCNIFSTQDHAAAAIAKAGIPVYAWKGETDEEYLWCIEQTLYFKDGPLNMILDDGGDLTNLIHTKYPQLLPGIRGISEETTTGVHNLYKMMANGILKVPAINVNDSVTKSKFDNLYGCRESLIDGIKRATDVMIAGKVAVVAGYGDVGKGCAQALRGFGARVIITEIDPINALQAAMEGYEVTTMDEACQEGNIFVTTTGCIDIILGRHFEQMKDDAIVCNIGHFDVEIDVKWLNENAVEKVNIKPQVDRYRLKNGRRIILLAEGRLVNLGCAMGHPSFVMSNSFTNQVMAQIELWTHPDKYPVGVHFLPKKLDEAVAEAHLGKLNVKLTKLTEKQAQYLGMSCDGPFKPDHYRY

[9] = mean ± SEM out of 3 sections per animal, 9 weeks atherogenic diet + c^3Ado
[10] = score 1 = no staining to 4 = strong staining, endothelial, ascending aorta, 9 weeks, mean ± SEM
[11] = group 3, atherogenic diet + c^3Ado

## Nc1nccc2c1ncn2[C@@H]1O[C@H](CO)[C@@H](O)[C@H]1O [c^3Ado, 3-deazaadenosine]
Female C57BL/J6 mice; fatty streak lesions, mean ± SEM from 7 sections per animal
  Number of lesions: 0 ± 0
Female C57BL/J6 mice; light micrographs, 200 μm cranial to aortic valve, FIG. 3
  Neointima in aortic cross sections: absent
Female C57BL/J6 mice; [9]
  Medial Area: 62.7 ± 2.5 × × 10^3 μm^2
  Neointimal area: 0.13 ± 0.03 × × 10^3 μm^2
Female C57BL/J6 mice; 9 weeks atherogenic diet + c^3Ado
  NI/M Ratio (neointimal to medial area ratio): 0.002 ± 0.0004
Female C57BL/J6 mice; 9 weeks atherogenic diet + c^3Ado, listed as c^aAdo
  NI/M Ratio (neointimal to medial area ratio): 0.002±0.0004
Female C57BL/J6 mice; oil red O staining, 7 frozen sections per animal
  Fatty streak lesions in sections of the ascending aorta: no detectable lesions
Female C57BL/J6 mice; proximal ascending aorta, planimetric analysis, atherogenic diet + c^3Ado, p<0.001
  Neointimal area: 125±32 μm^2
Female C57BL/J6 mice; vs atherogenic diet alone, p<0.001
  Neointimal thickness as NI/M, lower than in mice on atherogenic diet without c^3Ado: 94%
VCAM-1 [1]
  Endothelial expression of VCAM-1 in the aorta (words): completely absent
VCAM-1 [1]; listed as 3-deazaadenosine
  Endothelial expression of VCAM-1 in the aorta (words): no endothelial expression
VCAM-1 [1]; [10]
  VCAM-1 expression score: 1.0 ± 0
ICAM-1 [2]
  Endothelial expression of ICAM-1 in the aorta (words): completely absent
ICAM-1 [2]; listed as 3-deazaadenosine
  Endothelial expression of ICAM-1 in the aorta (words): no endothelial expression
ICAM-1 [2]; [10]
  ICAM-1 expression score: 1.0 ± 0
CD11b-positive monocytes; [11]
  Adherent CD11b-positive cells on the luminal surface: only a few adherent CD11b-positive cells
  CD11b-positive monocytic cells within the intima: no monocytic cells within the intima
CD11b-positive monocytes; mean ± SEM per section, 3 defined sections per animal, first of two columns with the same head (title: endothelial monocytes)
  Amount of intimal monocytes (first column of this head): 0.5 ± 0.2
CD11b-positive monocytes; mean ± SEM per section, 3 defined sections per animal, second of two columns with the same head
  Amount of intimal monocytes (second column of this head): 0 ± 0
[3]; day 35, plasma
  Total cholesterol day 35: 410 ± 19 mg/dL
[3]; day 65, plasma
  Total cholesterol day 65: 475 ± 10 mg/dL
Body weight development
  Body weight day 65: 25.3 ± 0.2 g
[4]; 10 mg/kg/day oral, 120 days
  Complications as a result of therapy: No complications
[4]; daily palpation, observation 120 days
  Graft survival (graft beat): kept beating for the duration of observation
[4]; heart allograft, 120 days
  Graft rejection: completely free from rejection
[5]
  Intimal thickening of intramyocardial and epicardial arteries: almost no arterial intimal thickening
ICAM-1 [6]
  ICAM-1 expression in the neointima of transplanted hearts: almost no expression
VCAM-1 [7]
  VCAM-1 expression in the neointima of transplanted hearts: almost no expression
monocyte
  Monocyte chemotaxis and phagocytosis: inhibit
Endothelial cells
  Tumor necrosis factor-a-induced macrophage adhesion to endothelial cells: reduces
[8]
  Effect on adenosylhomocysteine hydrolase: suppresses
